US20080275018A1, “ANTIBACTERIAL AMIDE-MACROCYCLES V” (AiCuris GmbH & Co. KG, priority 2005, published 2008)

System: S. aureus 133
Assay: Minimum inhibitory concentration (MIC), S. aureus 133
Format: cell-based, Staphylococcus aureus
Conditions: S. aureus 133
Procedure: The minimum inhibitory concentration (MIC) is the minimum concentration of an antibiotic with which the growth of a test microbe is inhibited over 18-24 h. The inhibitor concentration can in these cases be determined by standard microbiological methods (see, for example, The National Committee for Clinical Laboratory Standards. Methods for dilution antimicrobial susceptibility tests for bacteria that grow aerobically; approved standard-fifth edition. NCCLS document M7-A5 [ISBN 1-56238-394-9]. NCCLS, 940 West Valley Road, Suite 1400, Wayne, Pa. 19087-1898 USA, 2000). The test substances are thereby initially provided in 1:2 dilution series into 96-well round-bottom microtiter plates (Greiner) double-concentrated in 50 μl of test medium. The aerobically growing test microbes (e.g. staphylococci and enterococci), which are incubated overnight on Columbia blood agar plates (Becton-Dickinson), are, after resuspension in 0.9% NaCl, adjusted to a microbe count of about 5×10^7 microbes/ml and then diluted 1:150 in cation-adjusted MH medium (test medium). 50 μL of this suspension are pipetted onto the test preparations provided in the microtiter plates. The cultures are incubated at 37° C. for 18-24 hours. For microaerophilically growing microbes (e.g. streptococci), 2% lysed horse blood in the final concentration is added to the medium and the cultures are incubated in the presence of 5% CO2. The lowest substance concentration in each case at which no visible bacterial growth occurs any longer is defined as the MIC and is reported in μg/ml.
The minimum inhibitory concentration (MIC) is the minimum concentration of an antibiotic with which the growth of a test microbe is inhibited over 18-24 h. The inhibitor concentration can in these cases be determined by standard microbiological methods (see, for example, The National Committee for Clinical Laboratory Standards. Methods for dilution antimicrobial susceptibility tests for bacteria that grow aerobically; approved standard-fifth edition. NCCLS document M7-A5 [ISBN 1-56238-394-9]. NCCLS, 940 West Valley Road, Suite 1400, Wayne, Pa. 19087-1898 USA, 2000). The MIC of the compounds of the invention is determined in the liquid dilution test on the 96-well microtiter plate scale. The bacterial microbes are cultivated in a minimal medium (18.5 mM Na2HPO4, 5.7 mM KH2PO4, 9.3 mM NH4Cl, 2.8 mM MgSO4, 17.1 mM NaCl, 0.033 μg/ml thiamine hydrochloride, 1.2 μg/ml nicotinic acid, 0.003 μg/ml biotin, 1% glucose, 25 μg/ml of each proteinogenic amino acid with the exception of phenylalanine; [H.-P. Kroll; unpublished]) with the addition of 0.4% BH broth (test medium). In the case of Enterococcus faecium L4001, heat-inactivated fetal calf serum (FCS; GibcoBRL, Germany) is added to the test medium in a final concentration of 10%. Overnight cultures of the test microbes are diluted to an OD578 of 0.001 (to 0.01 in the case of enterococci) in fresh test medium, and incubated 1:1 with dilutions of the test substances (1:2 dilution steps) in test medium ([…]). The cultures are incubated at 37° C. for 18-24 hours; enterococci in the presence of 5% CO2.
The lowest substance concentration in each case at which no visible bacterial growth occurs any longer is defined as the MIC.
The minimum inhibitory concentration (MIC) is the minimum concentration of an antibiotic with which the growth of a test microbe is inhibited over 18-24 h. The inhibitor concentration can in these cases be determined by standard microbiological methods with modified medium in an agar dilution test (see, for example, The National Committee for Clinical Laboratory Standards. Methods for dilution antimicrobial susceptibility tests for bacteria that grow aerobically; approved standard-fifth edition. NCCLS document M7-A5 [ISBN 1-56238-394-9]. NCCLS, 940 West Valley Road, Suite 1400, Wayne, Pa. 19087-1898 USA, 2000). The bacterial microbes are cultivated on 1.5% agar plates which contain 20% defibrinated horse blood. […]

In the case of NC[C@H](O)C[C@@H]1NC(=O)[C@@H](N)Cc2cc(ccc2O)-c2ccc(O)c(c2)C[C@@H](C(=O)O)NC1=O [Biphenomycin B, biphenomycin B, reference compound], the “MIC S. aureus 133” value is reported as under 0.03 μ/ml.
